For one assay, the system named is human skin. In words: Clinical trial of skin-care efficacy of emulsion containing compound K. The class given is in vivo. As for the experimental part:
In order to evaluate the efficacy of the cosmetic composition containing compound K, a clinical trial was conducted with forty-nine (49) healthy Korean females aged from 31 to 37 years and having facial wrinkle and fine wrinkle. They were divided into three groups by skin type: normal skin, dry skin and combination skin and used two kinds of oily-water emulsions containing 0.03% compound K or none. Before the trial, all the volunteers were evaluated for facial wrinkle and fine wrinkle with a global photodamage score. All the scores were obtained before use and 4, 8 and 12 weeks after use. Each volunteer applied test samples onto the facial skin twice per day (morning and evening) at their homes, and particularly onto the wrinkles of the eye rims. Skin-care efficacies such as facial wrinkle, fine wrinkle, hydration, elasticity, smoothness, roughness and brightness were evaluated by the volunteers and skin expert inspectors. Difference before and after using topical samples and improvement were determined by photometry evaluation with Camscope® (model DCS-105) and by image analysis of silicon replica with Skin-Visiometer SV 600 (Courage & Khazaka, Germany).

The test system of assay [1] is HAS2 gene. The experiment in a line: Quantitative RT-PCR of HAS2 mRNA in keratinocyte cell line HaCaT. As to conditions: HaCaT cells; for increase in HAS2 transcription: 1 μM compound K. In kind it is cell-based, human. As to the method: (§1) The cells were cultured in Dulbecco's modified Eagle's medium (DMEM) supplemented with 10% fetal bovine serum (HyClone), sodium bicarbonate (3.6 g/l) and antibiotics of streptomycin (100 μg/ml) and penicillin (100 U/ml) (Life Technologies, Inc.) at 37° C. in a humidified atmosphere containing 5% CO2 and 95% air. The culture was changed with fresh medium every 3 days. On reaching the maximum cell-density, the cells were recultured at a 1:5 division ratio. 48 hours before treatment with compound K, the cells were seeded into a tissue culture flask at 1×10^5 cells per 75 cm^2 and cultured in the medium with 10% fetal bovine serum for 24 hours. Subsequently, the cells were cultured in the serum-free medium for another 24 hours and then in fresh serum-free medium supplemented with 1 to 5 μM of compound K for 3, 6, 12, 24 or 48 hours. As a control, the cells were cultured in the medium supplemented with 0.01% vehicle (dimethylsulfoxide, DMSO). In the control, no effect of DMSO on cell growth and differentiation was observed.
(§2) HaCaT cells and HDF cells were washed twice with phosphate buffered saline (PBS) (Life Technologies, Inc.), and total cellular RNA was isolated with TRizol® reagent (GibcoBRL Life Technologies, Grand Island, N.Y.) according to manufacturer's instructions. RNA concentration was measured by spectrophotometry and RNA integrity was checked by agarose gel electrophoresis.
Quantitated total RNA was reverse transcribed, then RT-PCR was performed using HAS1-, HAS2- and HAS3-specific primers. In brief, 4 μg of total RNA was reverse transcribed in 25 μl of reaction mixture containing 2.5 U/μl Superscript II reverse transcriptase (Invitrogen, Carlsbad, Calif.), 1 U/μg RNase inhibitor, 5 mM MgCl2, 50 mM KCl, 10 mM Tris-HCl (pH8.3), 2.5 μM oligo(dT) primers and 1 mM dNTPs. The reaction mixture was gently incubated at 42° C. for 60 min, to be subjected to reverse transcription. Then, the reverse transcriptase was inactivated by heating at 85° C. for 5 min.
Subsequently, 5 μl of the resulting mixture was subjected to PCR. […]

The next assay has as its system HAS1. In words: Quantitative RT-PCR of HAS1 mRNA in HaCaT cells. The class given is cell-based, human. Conditions: 1 μM compound K, 24 or 48 hours. As to the method:
as §1, with “As a control, the cells were cultured in the medium supplemented with 0.01% vehicle (dimethylsulfoxide, DMSO). In the control, no effect of DMSO on cell growth and differentiation was observed.” left out
as §2
(§3) Quantitated total RNA was reverse transcribed, then RT-PCR was performed using HAS1-, HAS2- and HAS3-specific primers. […]

A further assay deals with HAS3. The experiment in a line: Quantitative RT-PCR of HAS3 mRNA in HaCaT cells. In kind it is cell-based, human. As to conditions: 1 μM compound K, 24 or 48 hours. As to the method: as §1, with “As a control, the cells were cultured in the medium supplemented with 0.01% vehicle (dimethylsulfoxide, DMSO). In the control, no effect of DMSO on cell growth and differentiation was observed.” left out
as §2, §3

In the next assay the test system is HaCaT cells. The experiment in a line: Hyaluronic acid production in cultured HaCaT cells, bHABP immunocytochemical staining. In kind it is cell-based, human. As to conditions: 1 μM compound K, immunocytochemical method. As to the method:
(§4) HaCaT and HDF cells were washed with PBS then fixed in a fixative with 2% paraformaldehyde(v/v) and 0.5% glutaraldehyde(v/v) at room temperature for 20 min. After fixation, the cells were washed three times for 2 min each with 0.1 M sodium phosphate buffer (pH7.4), then blocked in 1% bovine serum albumin (w/v) containing 0.1% Triton X-100 (v/v) in the same buffer at room temperature for 30 min. Hyaluronan staining was carried out with a specific probe of biotinylated hyaluronan binding protein (bHABP) (Seikagaku, Tokyo, Japan). The bHABP probe, diluted to 5 μg/ml in 3% bovine serum albumin (w/v), was added to the fixed cells and was incubated overnight at 4° C. After washing, avidin-fluorescein isothocyanate (FITC) was added.
(§5) HaCaT cells (FIG. 3a, FIG. 3b) and HDF cells (FIG. 3c, FIG. 3d) were cultured in the presence of 1 μM compound K (FIG. 3b, FIG. 3d) or in the absence of compound K (FIG. 3a, FIG. 3c).

For a further assay, the system named is HDF cells. In words: Hyaluronic acid production in cultured HDF cells, bHABP immunocytochemical staining. In kind it is cell-based, human. Conditions: 1 μM compound K, immunocytochemical method. As for the experimental part: as §4, §5
In assay [2] the test system is HAS2 gene. The experiment in a line: Quantitative RT-PCR of HAS2 mRNA in fibroblast cell line HDF. In kind it is cell-based, human. As to conditions: HDF cells, treatment with compound K for 24 hours, in comparison with no treatment. As to the method: as §1, with “As a control, the cells were cultured in the medium supplemented with 0.01% vehicle (dimethylsulfoxide, DMSO). In the control, no effect of DMSO on cell growth and differentiation was observed.” left out
as §2, §3

In a further assay the test system is hairless mouse skin. In words: Production of hyaluronic acid in hairless mouse skin, bHABP immunohistochemical staining and image analysis. The class given is in vivo. As to conditions: hairless mouse back skin, 1%(w/v) compound K solution topically. As to the method:
Male albino Hos:hr-1 mice, 30 weeks old, were purchased from Biogenomics (Seoul, Korea) and had unrestricted access to standard rodent chow and water. After one week of acclimation under controlled conditions of 24±2° C. and 55±10% humidity, 200 μl of 1%(w/v) compound K solution in the vehicle (1,3-BG:ethanol-7:3) was topically applied onto the back of the mouse two times for 2 days. 24 hours after the final administration, each skin sample was collected.
Hyaluronan staining was carried out with bHABP(Seikagaku). Each skin sample was fixed with 2% formaldehyde and 0.5% glutaraldehyde in PBS, embedded and sectioned. After deparaffinization, sections were incubated in 0.3% H2O2 in methanol at room temperature for 30 min, washed with PBS, then blocked in 1% bovine serum albumin. Subsequently the sections were incubated in […] bHABP in PBS at 4° C. then, after washing, incubated with streptoavidin-peroxidase, diluted to 1/300 in PBS at room temperature, for 30 min. […]
Stained slides were quantitatively characterized via digital image analysis using ImagePro-Plus (Media Cybernetics, Silver Spring, Md.). […] Staining score is determined by the following formula 1: Intensity of stain X (total stained area/total area) Equation 1
One-way ANOVA with post-hog Duncan test was performed using SigmaStat (SPSS Inc., Chicago, Ill.). Data were expressed as the mean±SEM. […]

[3] abbreviates: emulsion with 0.03% compound K, after 8 weeks of use.

Take `CC(C)=CCC[C@](C)(OCC1OC(CO)C(O)C(O)C1O)C1CC[C@]2(C)C1C(O)CC1C3(C)CCC(O)C(C)(C)C3CCC12C` (stereo partly drawn) [compound K, 20-O-β-D-glucopyranosyl-20(S)-protopanaxadiol]: the “wrinkle, hydration, elasticity, smoothness and brightness of human skin” value in the assay with human skin (compound K-containing topical composition applied onto the human skin) was “improved”. Moreover, in the assay on human skin (emulsion with 0.03% compound K), the “volunteers answering improvement in skin brightness” value amounted to 68%, the “volunteers answering improvement in skin elasticity” value is given as 68%, the “volunteers answering improvement in skin roughness” value amounted to 94% and the “volunteers answering improvement in skin smoothness” value worked out at 92%. The “volunteers answering increase in skin moisturizing capacity” value in the assay with human skin (emulsion with 0.03% compound K) is on record as 88%. In addition, the “facial wrinkle and fine wrinkle, global photodamage score by skin expert inspectors” value in the assay with human skin (emulsion with 0.03% compound K twice per day on facial skin, 12 weeks of use versus initial values and control emulsion) is recorded as “statistically significant decrease”. In the assay with human skin (setting [3]), the “total wrinkle in skin replica analysis” value is “decreased statistically significantly”; the “volunteers giving positive and affirmative estimate” value is 76%. Also, the “volunteers giving positive and affirmative estimate” value in the assay with human skin (emulsion with 0.03% compound K, after 12 weeks of use) is on record as 92%. In the assay on HAS2 gene [1] (24 hours incubation), the “increase in HAS2 transcription” value is listed as “about 3 times”. The “increase in HAS2 transcription” value with HAS2 gene [1] (48 hours incubation) was “about 5 times”. In addition, the “increase in HAS2 gene expression (HAS2 mRNA) versus control” value in the assay with HAS2 gene [1] (treatment with compound K for 24 hours, in comparison with no treatment) is 3 times. Moreover, in the assay on HAS1, the “effect on HAS1 mRNA level” value is “did not influence”. Also, the “effect on HAS3 mRNA level” value in the assay on HAS3 is on record as “did not influence”. Besides, in the assay on HaCaT cells, the “production of hyaluronic acid in cultured cells” value was “increased production of hyaluronic acid was confirmed”. Also, the “production of hyaluronic acid in cultured cells” value in the assay with HDF cells is given as “increased production of hyaluronic acid was confirmed”. Also, the “increase in HAS2 gene expression (HAS2 mRNA) versus control” value in the assay with HAS2 gene [2] is 2.5 times. For the same compound, the “hyaluronic acid in skin (immunohistochemical staining)” value in the assay with hairless mouse skin is on record as “significantly increased”.

The values are drawn from US8173607B2, “Promoter for the production of hyaluronic acid containing ginsenoside compound K” (Amorepacific Corporation, priority 2002, dated 2012).
